Measured values: patent US20090163481A1, “PPAR-DELTA LIGANDS AND METHODS OF THEIR USE” (priority 2007, published 2009)
Where two headings read alike, the source gives them in different places.

Legend:
[1] = Proliferation assay of Table 2 (cell line not stated); assay type: cell-based; settings: concentration that inhibits cell viability (or growth) by 50% relative to vehicle control; read-out: Prolif IC50
Protocol: (§1) The LANTHA SCREEN™ TR-FRET PPARδ Competitive Binding Assay was conducted for a variety of compounds according to the instructions provided by the manufacturer (Invitrogen). In addition, proliferation assays were conducted. In Table 2, “Prolif IC50” is the concentration that inhibits cell viability (or growth) by 50% relative to a vehicle control, and “TR-F binding IC50 (μM)” is the concentration that competes binding by a labeled pan-agonist to the ligand binding domain of PPAR delta, by 50%.

[2] = Solubility in DMSO (noted in binding assay column); assay type: physicochemical
[3] = target: T1, ligand binding domain of PPAR delta (Homo sapiens, UniProt Q03181); experiment: LANTHA SCREEN TR-FRET PPARδ Competitive Binding Assay
T1 construct: purchased Invitrogen
T1 sequence (Q03181 211-439 limits assumed): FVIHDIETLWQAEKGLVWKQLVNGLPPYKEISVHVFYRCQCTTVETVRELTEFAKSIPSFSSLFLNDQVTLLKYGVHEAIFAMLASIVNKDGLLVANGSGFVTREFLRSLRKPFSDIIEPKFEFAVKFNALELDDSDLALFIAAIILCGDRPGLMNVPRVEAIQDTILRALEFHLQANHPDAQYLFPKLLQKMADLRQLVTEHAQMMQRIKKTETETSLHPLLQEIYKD
Protocol: as §1

LBD of PPARδ protein = target: T2, LBD of PPARδ protein (Homo sapiens, UniProt Q03181); experiment: PPARδ ligand-binding domain (LBD)/Gal4 UAS-tk-luciferase reporter assay in U2-OS cells; assay type: cell-based; settings: from GAL-4 binding and PPRE transactivation reporter screens
T2 construct: co-transfection of a plasmid containing an LBD/Gal4 fusion construct; expressed in transfected cells; host or cells: U2-OS (human bone cancer line)
T2 sequence (Q03181 211-439 limits assumed): T1 sequence (Q03181 211-439 limits assumed)
Protocol: (§2) General Testing Procedures. Each ligand was screened for PPARδ binding and transactivation activity through the use of two complementary reporter assays as described below. In both systems, transfection efficiency was standardized by co-transfection of a control Renilla luciferase. U2-OS (human bone cancer line) cells were used for both assays because this is the cell line of choice for screening PPAR ligands. At 18 h post-transfection, GW 501, with and without the ligands of the disclosure, was added to the cells and incubated for an additional 24 h. The cells were then harvested and luciferase activities profiled.
A PPARδ protein ligand-binding domain (LBD) assay. The LBD assay consists of cellular co-transfection of a plasmid containing an LBD/Gal4 fusion construct and a vector containing a UAS-tk-luciferase reporter construct under the transcriptional control of a Gal4 upstream activating sequence. This system was used to test for binding activities of candidate PPARδ ligands to the LBD of PPARδ protein.
(§3) Referring to FIG. 3, U2-OS cells were transiently transfected with appropriate expression and reporter vectors. Ligands were added to the cell cultures 24 h post-transfection and incubated for an additional 16 h. Lipoprotein lipase (LPL; 2 μg/ml) was added with VLDL (5 μg/ml) to release PPARδ-active triglycerides. FIG. 3A: PPARδ LBD/Gal4/UAS-tk-luc competition assays with VLDL SR13904 (0-10 μM). The reporter activation (fold increase over blank) is presented relative to GW501516 at 7 nM (fold increase over blank=100). FIG. 3B: PPRE reporter assays using 0, 1, and 10 μM SR13904+VLDL. All assays were repeated in triplicate.

PPARδ = target: T3, PPARδ (Homo sapiens, UniProt Q03181); experiment: PPRE promoter/luciferase reporter (transactivation) assay in U2-OS cells; assay type: cell-based
T3 construct: expressed in transfected cells; host or cells: U2-OS (human bone cancer line)
T3 sequence (Q03181 1-441): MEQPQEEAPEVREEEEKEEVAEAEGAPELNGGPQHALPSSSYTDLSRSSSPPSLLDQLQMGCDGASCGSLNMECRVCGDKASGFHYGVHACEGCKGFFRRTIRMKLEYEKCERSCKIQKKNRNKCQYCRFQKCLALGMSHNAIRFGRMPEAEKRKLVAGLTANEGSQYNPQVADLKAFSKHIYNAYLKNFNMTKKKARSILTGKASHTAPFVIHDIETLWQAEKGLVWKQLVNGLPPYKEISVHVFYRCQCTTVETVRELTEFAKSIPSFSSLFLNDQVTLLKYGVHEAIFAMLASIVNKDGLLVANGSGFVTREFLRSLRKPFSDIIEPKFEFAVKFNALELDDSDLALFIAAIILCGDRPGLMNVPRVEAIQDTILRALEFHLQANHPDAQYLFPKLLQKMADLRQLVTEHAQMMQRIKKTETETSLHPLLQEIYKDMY
Protocol: as §2
A promoter/luciferase reporter assay. This assay involves co-transfection of a PPARδ expression vector and a plasmid containing a luciferase gene under the control of PPARδ responsive DNA element (three copies of a consensus PPAR response element, PPRE). This assay was used to directly test ligand effects on PPARδ-responsive genes.
as §3

A549 cells = experiment: Apoptosis, Cell Death Detection ELISA (DNA fragmentation) in A549 cells; assay type: cell-based, human; settings: A549, GW501 1 μM with SR13904 15 μM
Protocol: Referring now to FIG. 6, SR13904 treatment of cancer cells results in increased apoptosis. A549 cells (2×10^4 cells/well) were incubated in 0.5% media (96 well plates) SR13904 for 40 h. The relative degrees of apoptosis were determined using a Cell Death Detection ELISA (Roche). SR represents SR13904. ***p=<0.001 SR vs. SR+GW501.
SR13904 treatment results in increased apoptosis. Down-regulation of PPARδ, either by genetic knockout or by the treatment with 13-S—HODE (15-lipoxygenase-1 product), induces apoptosis in colorectal cancer cells. The effects of SR13904 (15 μM) GW501 (1 μM) on survival of A549 cells (0.5% serum) was determined. Relative degrees of apoptosis were measured using a DNA fragmentation assay.

[4] = competes binding by a labeled pan-agonist by 50%, * = determined by approximation from a semi log graph, read-out: TR-F binding IC50

Row | Compound | IC50 [1] [µM] | IC50 [3, 4] [µM] | also measured
1 | Cc1cc(SCC(=O)NC(c2ccccc2)c2ccccc2)ccc1OCC(=O)O [SRI-010260] | > 40 | – | solubility in DMSO [2]: not soluble in DMSO
2 | Cc1cc(SCCC(=O)N(Cc2ccc(Cl)cc2)C(c2ccccc2)c2ccccc2)ccc1OCC(=O)O [SRI-010262] | 5.6 | > 18 | –
3 | Cc1cc(SCc2sc(-c3ccc(C(C)(C)C)cc3)nc2C)ccc1OCC(=O)O [SR 13906] | – | – | PPARδ ligand profile (agonist/antagonist) (LBD of PPARδ protein): low-affinity agonists; inhibition of PPARδ-mediated transactivation (PPARδ): appear to inhibit
4 | Cc1cc(SCc2sc(-c3ccc(C(F)(F)F)cc3)nc2C)ccc1OCC(=O)O [GW 501516, reference compound] | – | – | effect of co-treatment on SR13904-induced apoptosis (A549 cells): markedly alleviated
5 | Cc1cc(SCC(=O)N(Cc2ccc(Cl)cc2Cl)C(c2ccccc2)c2ccccc2)ccc1OCC(=O)O [SRI-010258] | 4.8 | > 14 | –
6 | Cc1cc(SCC(=O)N(Cc2ccc(Cl)cc2)C(c2ccccc2)c2ccccc2)ccc1OCC(=O)O [SRI-010256] | – | > 18 | –
7 | CCCc1cc(SCc2sc(-c3ccc(C(C)(C)C)cc3)nc2C)ccc1OCC(=O)O [SR 13907] | – | – | PPARδ ligand profile (agonist/antagonist) (LBD of PPARδ protein): low-affinity agonists; inhibition of PPARδ-mediated transactivation (PPARδ): appear to inhibit
8 | Cc1cc(SCCn2c3ccccc3c3ccccc32)ccc1OCC(=O)O [SRI-010252] | 9 | > 30 | –
9 | Cc1cc(SCC(=O)N(Cc2ccccc2)C(c2ccccc2)c2ccccc2)ccc1OCC(=O)O [SRI-010255] | 5 | > 12 | –
10 | Cc1cc(SCCC(=O)N(Cc2ccc(Cl)cc2Cl)C(c2ccccc2)c2ccccc2)ccc1OCC(=O)O [SRI-010264] | 5.9 | > 25 | –
11 | Cc1cc(SCCOC(c2ccccc2)c2ccccc2)ccc1OCC(=O)O [SRI-010253] | 14 | 3 | –
12 | COc1ccc(CN(C(=O)CSc2ccc(OCC(=O)O)c(C)c2)C(c2ccccc2)c2ccccc2)cc1OC [SRI-010259] | > 40 | > 30 | –
13 | Cc1cc(SCc2sc(-c3ccc4ccccc4c3)nc2C)ccc1OCC(=O)O [SR 13961] | – | – | PPARδ ligand profile (agonist/antagonist) (LBD of PPARδ protein): low-affinity agonists
14 | Cc1cc(SCCN2c3ccccc3Sc3ccc(C(F)(F)F)cc32)ccc1OCC(=O)O [SRI-010250] | 7 | 3.8 | –
15 | Cc1cc(SCCC(=O)NC(c2ccccc2)c2ccccc2)ccc1OCC(=O)O [SRI-010266] | > 40 | > 30 | –
16 | COc1ccc(CN(C(=O)CCSc2ccc(OCC(=O)O)c(C)c2)C(c2ccccc2)c2ccccc2)cc1OC [SRI-010265] | > 40 | > 30 | –
17 | Cc1cc(SCC(=O)N(Cc2ccc(F)c(F)c2)C(c2ccccc2)c2ccccc2)ccc1OCC(=O)O [SRI-010257] | 9.1 | > 23 | –
18 | CCCc1cc(SCc2sc(-c3cccc4ccccc34)nc2C)ccc1OCC(=O)O [SR 13905] | – | – | inhibition of PPARδ-mediated transactivation (PPARδ): appear to inhibit
19 | Cc1cc(SCCC(=O)N(Cc2ccc(F)c(F)c2)C(c2ccccc2)c2ccccc2)ccc1OCC(=O)O [SRI-010263] | 9.1 | > 25 | –
20 | Cc1cc(SCCOC2c3ccccc3-c3ccccc32)ccc1OCC(=O)O [SRI-010248] | 9 | > 30 | –
21 | Cc1cc(SCCN2c3ccccc3Sc3ccccc32)ccc1OCC(=O)O [SRI-010251] | 7.6 | 13.7 | –
22 | Cc1cc(SCCC(=O)N(Cc2ccccc2)C(c2ccccc2)c2ccccc2)ccc1OCC(=O)O [SRI-010261] | 8.5 | > 20 | –
23 | CCCc1cc(SCc2sc(-c3ccc(CC)cc3)nc2C)ccc1OCC(N)=O [SR 13910] | – | – | PPARδ ligand profile (agonist/antagonist) (LBD of PPARδ protein): low-affinity agonists
24 | Cc1cc(SCCOC(c2ccc(F)cc2)c2ccc(F)cc2)ccc1OCC(=O)O [SRI-010249] | 5.4 | 0.85 | IC50 ([3]; repeat determination of TR-F binding IC50, read-out: repeat TR-F): 1.2 µM
25 | Cc1cc(SCCOC(c2ccccc2)c2ccc(C(F)(F)F)cc2)ccc1OCC(=O)O (stereo not shown) [SRI-010254] | 7.4 | 1.3 | –
